Where a name gives a salt, the structure may show the parent alone. Read-outs that look alike come from different tables or passages of the source.

The target of test [1] is T1, Tyk2 (Homo sapiens, UniProt P29597).
T1 construct: purchased Invitrogen
As to the kind of experiment: Tyk2 enzyme inhibition test (LANCE method). The format is biochemical. Conditions: for inhibition at 1 µM: read-out: Inhibitory rate (%) Tyk2 1 μM. Put shortly:
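LANCE TR-FRET read-out (ex 340/em 665 nm, 100 μs delay) of ULight-JAK1 phosphorylation, with no-enzyme wells as 100% inhibition. Reaction run 1 h at room temperature in pH 7.5 HEPES buffer; enzyme 375 ng/mL, substrate 300 nM and ATP 30 μM are solution concentrations before mixing.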

The target in test [2] is T2, JAK1 (Homo sapiens, UniProt P23458).
T2 construct: purchased Invitrogen
T2 sequence (P23458 whole entry): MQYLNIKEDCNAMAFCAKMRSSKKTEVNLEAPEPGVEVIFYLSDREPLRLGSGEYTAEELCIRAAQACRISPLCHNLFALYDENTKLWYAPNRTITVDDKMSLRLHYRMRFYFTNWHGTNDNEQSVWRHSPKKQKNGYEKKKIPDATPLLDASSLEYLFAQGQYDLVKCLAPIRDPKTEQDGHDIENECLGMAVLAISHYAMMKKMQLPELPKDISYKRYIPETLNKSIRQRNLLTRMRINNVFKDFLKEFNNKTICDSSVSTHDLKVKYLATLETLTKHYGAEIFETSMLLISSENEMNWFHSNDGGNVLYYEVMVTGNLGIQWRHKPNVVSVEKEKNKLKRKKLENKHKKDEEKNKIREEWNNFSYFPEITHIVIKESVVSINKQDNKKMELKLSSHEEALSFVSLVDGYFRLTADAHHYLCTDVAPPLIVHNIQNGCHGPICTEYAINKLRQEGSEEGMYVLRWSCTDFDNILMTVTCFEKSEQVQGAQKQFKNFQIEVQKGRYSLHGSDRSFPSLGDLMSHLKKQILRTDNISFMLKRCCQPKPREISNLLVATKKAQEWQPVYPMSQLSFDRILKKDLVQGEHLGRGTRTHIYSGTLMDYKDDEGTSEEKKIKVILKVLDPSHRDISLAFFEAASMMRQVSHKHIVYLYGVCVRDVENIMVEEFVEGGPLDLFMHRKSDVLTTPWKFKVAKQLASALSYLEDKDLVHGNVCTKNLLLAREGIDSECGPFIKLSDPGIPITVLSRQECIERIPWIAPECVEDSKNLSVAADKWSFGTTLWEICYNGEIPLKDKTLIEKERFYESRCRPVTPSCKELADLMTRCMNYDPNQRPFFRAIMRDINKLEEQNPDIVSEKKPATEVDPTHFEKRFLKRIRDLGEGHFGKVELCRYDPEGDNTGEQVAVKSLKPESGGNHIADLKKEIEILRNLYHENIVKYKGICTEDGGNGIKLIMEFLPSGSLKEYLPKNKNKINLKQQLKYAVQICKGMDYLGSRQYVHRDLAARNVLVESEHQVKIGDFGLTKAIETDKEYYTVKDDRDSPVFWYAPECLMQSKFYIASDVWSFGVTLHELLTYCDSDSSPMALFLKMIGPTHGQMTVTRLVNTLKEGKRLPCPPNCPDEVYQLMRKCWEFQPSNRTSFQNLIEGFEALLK
In words: JAK1 enzyme inhibition test (LANCE method). Type of test: biochemical. Conditions: for inhibition at 10 µM: read-out: Inhibitory rate (%) JAK1 10 μM; for inhibition at 1 µM: test compound 1 μM, read-out: Inhibitory rate (%) JAK1 1 μM. Summed up:
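Reactions ran 1 h at room temperature in HEPES pH 7.5/MgCl2 buffer, with ATP solution at 150 μM and JAK1 and ULight peptide solutions at 187.5 ng/mL and 300 nM. Reactions were stopped with EDTA, and phosphorylation was read by Eu antibody time-resolved fluorescence at 665 nm. Inhibition was scaled to a no-enzyme control as 100%.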
On the technique in general: In TR-FRET formats the signal depends on donor and acceptor labels being close together.

Setting [3] is: test compound 10 μM (Ex. 182-220), beside Tyk2 1 μM.

T1 sequence (P29597 whole entry): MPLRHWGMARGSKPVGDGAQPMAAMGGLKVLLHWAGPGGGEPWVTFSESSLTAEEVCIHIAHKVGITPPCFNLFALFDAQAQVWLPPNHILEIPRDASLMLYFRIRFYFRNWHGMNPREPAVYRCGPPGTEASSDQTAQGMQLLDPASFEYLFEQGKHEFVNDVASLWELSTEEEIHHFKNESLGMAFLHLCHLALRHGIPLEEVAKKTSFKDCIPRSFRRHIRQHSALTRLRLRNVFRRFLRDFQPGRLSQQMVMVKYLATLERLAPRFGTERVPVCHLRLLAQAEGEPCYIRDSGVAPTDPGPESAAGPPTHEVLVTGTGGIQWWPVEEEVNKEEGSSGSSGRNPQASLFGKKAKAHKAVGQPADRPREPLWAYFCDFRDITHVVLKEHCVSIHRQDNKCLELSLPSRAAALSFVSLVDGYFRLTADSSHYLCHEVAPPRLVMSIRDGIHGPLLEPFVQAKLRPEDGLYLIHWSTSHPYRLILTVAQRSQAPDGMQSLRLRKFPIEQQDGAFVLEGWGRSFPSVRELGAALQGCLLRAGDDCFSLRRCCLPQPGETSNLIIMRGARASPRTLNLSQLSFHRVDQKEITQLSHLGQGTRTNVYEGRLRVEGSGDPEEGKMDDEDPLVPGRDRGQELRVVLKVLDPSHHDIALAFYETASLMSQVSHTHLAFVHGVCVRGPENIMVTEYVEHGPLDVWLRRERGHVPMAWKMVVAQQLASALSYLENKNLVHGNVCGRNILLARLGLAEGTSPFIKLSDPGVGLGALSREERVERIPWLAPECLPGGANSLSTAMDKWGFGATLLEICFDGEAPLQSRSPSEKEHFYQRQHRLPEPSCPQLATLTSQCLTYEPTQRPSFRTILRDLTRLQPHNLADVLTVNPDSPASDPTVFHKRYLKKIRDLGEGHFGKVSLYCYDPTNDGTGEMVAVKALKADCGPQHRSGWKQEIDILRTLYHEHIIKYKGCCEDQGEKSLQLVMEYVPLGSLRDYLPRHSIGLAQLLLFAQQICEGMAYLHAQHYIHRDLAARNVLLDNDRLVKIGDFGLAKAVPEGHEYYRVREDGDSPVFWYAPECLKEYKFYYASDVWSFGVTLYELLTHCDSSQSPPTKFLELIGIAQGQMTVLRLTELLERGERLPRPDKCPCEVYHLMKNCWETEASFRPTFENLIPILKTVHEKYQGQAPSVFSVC

For `CC1(C)OCC(Cn2cc(-c3ccc(S(N)(=O)=O)cc3)c3c(=O)[nH]ccc32)O1` (stereo not drawn) [Example 90, 4-(1-((2,2-dimethyl-1,3-dioxolan-4-yl)methyl)-4-oxo-4,5-dihydro-1H-pyrrolo[3,2-c]pyridin-3-yl)benzenesulfonamide], the inhibition at 10 µM in test [1] (test compound 10 μM, read-out: Inhibitory rate (%) Tyk2 10 μM) was found to be 22%; in test [2] (test compound 10 μM), 38%.

Take `O=c1[nH]ccc2c1c(-c1ccc(C3=CCOCC3)cc1)nn2-c1c(F)cccc1F` [Example 256, 1-(2,6-difluorophenyl)-3-(4-(3,6-dihydro-2H-pyran-4-yl)phenyl)-1,5-dihydro-4H-pyrazolo[4,3-c]pyridin-4-one]: the inhibition at 1 µM in test [1] (test compound 1 μM) was determined as 98%; in test [2] it was 92%.

Turning to `CCC(CC)n1cc(-c2csc(C(N)=O)c2)c2c(=O)[nH]ccc21` [Example 8, 4-(4-oxo-1-(pentan-3-yl)-4,5-dihydro-1H-pyrrolo[3,2-c]pyridin-3-yl)thiophene-2-carboxamide], the inhibition at 1 µM in test [1] (test compound 1 μM) and in test [2] was 98% in each case.

Consider `O=c1[nH]cc(Cl)c2c1c(-c1cn[nH]c1)nn2-c1c(F)cccc1F` [Example 177, 7-chloro-1-(2,6-difluorophenyl)-3-(1H-pyrazol-4-yl)-1,5-dihydro-4H-pyrazolo[4,3-c]pyridin-4-one], for which the inhibition at 1 µM came to 100% in test [1] (test compound 1 μM) and 91% in test [2].

As to `CC1(O)CCC(n2nc(-c3ccc(S(N)(=O)=O)cc3)c3c(=O)[nH]ccc32)CC1` (stereo not drawn) [Example 197, 4-(1-(4-hydroxy-4-methylcyclohexyl)-4-oxo-4,5-dihydro-1H-pyrazolo[4,3-c]pyridin-3-yl)benzenesulfonamide], the “Inhibitory rate (%) Tyk2 1 μM” value in test [1] (test compound 1 μM) was determined as 98%. Further, the “Inhibitory rate (%) JAK1 10 μM” value in test [2] (setting [3]) was determined as 99%.

Take `NS(=O)(=O)c1ccc(-c2cn([C@H]3CC[C@@H](O)CC3)c3cc[nH]c(=O)c23)cc1` [Example 32, 4-(1-(cis-4-hydroxycyclohexyl)-4-oxo-4,5-dihydro-1H-pyrrolo[3,2-c]pyridin-3-yl)benzenesulfonamide]: the results for the inhibition at 1 µM in test [1] (test compound 1 μM) and in test [2] were 95% and 98%, respectively.

For `COc1ccc(Cn2nc(-c3ccc(S(N)(=O)=O)cc3)c3c(=O)[nH]ccc32)cc1` [Example 94, 4-(1-(4-methoxybenzyl)-4-oxo-4,5-dihydro-1H-pyrazolo[4,3-c]pyridin-3-yl)benzenesulfonamide], the inhibition at 1 µM in test [1] (test compound 1 μM) stood at 78%; in test [2], 80%.

On to `NS(=O)(=O)c1ccc(-c2nn(C3CCC(O)CC3)c3cc[nH]c(=O)c23)cc1` (stereo not drawn) [Example 119, 4-(1-(4-hydroxycyclohexyl)-4-oxo-4,5-dihydro-1H-pyrazolo[4,3-c]pyridin-3-yl)benzenesulfonamide], for which the values for the inhibition at 1 µM in test [1] (test compound 1 μM) and in test [2] were 99% and 100%, respectively.

For the compound `Cc1ccccc1-c1nn(-c2csc(C(N)=O)c2)c2c(=O)[nH]cc(C#N)c12` [Example 70, 4-(4-cyano-3-(2-methylphenyl)-7-oxo-6,7-dihydro-1H-pyrazolo[3,4-c]pyridin-1-yl)thiophene-2-carboxamide], the inhibition at 1 µM in test [1] (test compound 1 μM) amounted to 88%; in test [2], 41%.

As for `O=C1CCCN1Cc1cc(-c2nn(-c3c(F)cccc3F)c3c(Cl)c[nH]c(=O)c23)cs1` [Example 220, 7-chloro-1-(2,6-difluorophenyl)-3-(5-((2-oxopyrrolidin-1-yl)methyl)-3-thienyl)-1,5-dihydro-4H-pyrazolo[4,3-c]pyridin-4-one], the inhibition at 1 µM in test [1] (test compound 1 μM) was found to be 100%. In addition, in test [2] (setting [3]), the inhibition at 10 µM amounted to 98%.

For `NS(=O)(=O)c1ccc(-c2nn(C3CCOCC3)c3cc[nH]c(=O)c23)cc1` [Example 15, 4-(4-oxo-1-(tetrahydro-2H-pyran-4-yl)-4,5-dihydro-1H-pyrazolo[4,3-c]pyridin-3-yl)benzenesulfonamide], the results for the inhibition at 1 µM in test [1] (test compound 1 μM) and in test [2] were 97% and 99%, respectively.

Regarding `O=c1[nH]ccc2c1c(-c1ccsc1)cn2C1CCCC1` [Example 5, 1-cyclopentyl-3-(3-thienyl)-1,5-dihydro-4H-pyrrolo[3,2-c]pyridin-4-one], the inhibition at 1 µM in test [1] (test compound 1 μM) stood at 96%; in test [2], 97%.

Turning to `N#Cc1c[nH]c(=O)c2c(-c3cnn(C4CCCC4)c3)cn(C3CCCC3)c12` [Example 137, 1-cyclopentyl-3-(1-cyclopentyl-1H-pyrazol-4-yl)-4-oxo-4,5-dihydro-1H-pyrrolo[3,2-c]pyridine-7-carbonitrile], the inhibition at 1 µM in test [1] (test compound 1 μM) was found to be 98%; in test [2], 77%.

For the compound `N#Cc1c[nH]c(=O)c2c(-c3ccn[nH]3)cn(C3CCCC3)c12` [Example 125, 1-cyclopentyl-4-oxo-3-(1H-pyrazol-5-yl)-4,5-dihydro-1H-pyrrolo[3,2-c]pyridine-7-carbonitrile hydrochloride], the inhibition at 1 µM was 96% in test [1] (test compound 1 μM) and 80% in test [2].

Take `NC(=O)c1cc(-c2nn(-c3c(F)cccc3F)c3cc[nH]c(=O)c23)cs1` [Example 38, 4-(1-(2,6-difluorophenyl)-4-oxo-4,5-dihydro-1H-pyrazolo[4,3-c]pyridin-3-yl)thiophene-2-carboxamide]: the inhibition at 1 µM came to 99% in test [1] (test compound 1 μM) and 100% in test [2].

As for `O=C(NCCO)c1ccc(-c2nn(-c3c(F)cccc3F)c3c(Cl)c[nH]c(=O)c23)cc1` [Example 232, 4-(7-chloro-1-(2,6-difluorophenyl)-4-oxo-4,5-dihydro-1H-pyrazolo[4,3-c]pyridin-3-yl)-N-(2-hydroxyethyl)benzamide], the inhibition at 1 µM in test [1] (test compound 1 μM) came to 100%; in test [2], 60%.

`O=c1[nH]ccc2c1c(-c1ccc(OC(F)(F)F)cc1)nn2C1CCCC1` [Example 45, 1-cyclopentyl-3-(4-(trifluoromethoxy)phenyl)-1,5-dihydro-4H-pyrazolo[4,3-c]pyridin-4-one]: the inhibition at 1 µM in test [1] (test compound 1 μM) worked out at 74%; in test [2] it was 90%.

`NC(=O)c1cc(-c2nn(C3CCCC3)c3c(C4CC4)c[nH]c(=O)c23)cs1` [Example 282, 4-(1-cyclopentyl-7-cyclopropyl-4-oxo-4,5-dihydro-1H-pyrazolo[4,3-c]pyridin-3-yl)thiophene-2-carboxamide]: the figures for the inhibition at 1 µM in test [1] (test compound 1 μM) and in test [2] were 85% and 76%, respectively.

Regarding `CCC(COC)n1cc(-c2ccc(C(N)=O)cc2)c2c(=O)[nH]ccc21` (stereo not drawn) [Example 26, 4-(1-(1-methoxybutan-2-yl)-4-oxo-4,5-dihydro-1H-pyrrolo[3,2-c]pyridin-3-yl)benzamide], the inhibition at 1 µM was 41% in test [1] (test compound 1 μM) and 20% in test [2].

Turning to `CC[C@H](COC)n1nc(-c2csc(C(N)=O)c2)c2c(=O)[nH]ccc21` [Example 263, 4-(1-((2R)-1-methoxybutan-2-yl)-4-oxo-4,5-dihydro-1H-pyrazolo[4,3-c]pyridin-3-yl)thiophene-2-carboxamide], the inhibition at 1 µM is 90% in test [1] (test compound 1 μM) and 97% in test [2].

Turning to `CNC(=O)C1CCN(c2ccc(-c3nn(-c4c(F)cccc4F)c4cc[nH]c(=O)c34)cc2)CC1` [Example 310, 1-(4-(1-(2,6-difluorophenyl)-4-oxo-4,5-dihydro-1H-pyrazolo[4,3-c]pyridin-3-yl)phenyl)-N-methylpiperidine-4-carboxamide], the values for the inhibition at 1 µM in test [1] (test compound 1 μM) and in test [2] were 100% and 93%, respectively.

The record behind these values is patent US9371320B2, “Heterocyclic compound” (TAKEDA PHARMACEUTICAL COMPANY LIMITED, priority 2012, dated 2016).
